{"source": "patent US6080772A", "about": "“Thiazole compounds and methods of modulating signal transduction” (Sugen, Inc., priority 1997, dated 2000)", "note": "Where “and” joins values, the source holds several entries; their conditions need not be identical. Equal values may be shown once.", "data": [{"system": "primary adipocytes", "test": "Primary adipocyte glucose uptake assay (14C glucose)", "details": "test compound 50 mM without insulin, compared to samples containing only insulin (final concentration=100 μm)", "values": [{"compound": "O=[N+]([O-])c1cnc(Sc2n[nH]c(-c3cccs3)n2)s1", "note": "[Compound 3, 3-[(5-nitrothiazol-2-yl)mercapto]-5-(thien-2-yl)-1,2,4-triazole]", "response in the primary adipocyte glucose uptake assay compared with the insulin control": "did not give a response greater than or equal to the insulin control"}, {"compound": "O=[N+]([O-])c1cnc(Sc2ncc(C(F)(F)F)cn2)s1", "note": "[Compound 83, 2-[(5-Nitrothiazol-2-yl)mercapto]-5-(trifluoromethyl)pyrimidine]", "response in the primary adipocyte glucose uptake assay compared with the insulin control": "did not give a response greater than or equal to the insulin control"}, {"compound": "O=[N+]([O-])c1cnc(Sc2nnc(O)n2Cc2ccccc2)s1", "note": "[Compound 7]", "response in the primary adipocyte glucose uptake assay compared with the insulin control": "did not give a response greater than or equal to the insulin control"}, {"compound": "Cn1ccnc1Sc1ncc([N+](=O)[O-])s1", "note": "[Compound 13, 1-Methyl-2-[(5-nitrothiazol-2-yl)mercapto]imidazole]", "response in the primary adipocyte glucose uptake assay compared with the insulin control": "did not give a response greater than or equal to the insulin control"}, {"compound": "O=[N+]([O-])c1cnc(Sc2nc(-c3ccc(Cl)cc3)n[nH]2)s1", "note": "[Compound 4, 3-(4-chlorophenyl)-5-[(5-nitrothiazol-2-yl)mercapto]-1,2,4-triazole]", "response in the primary adipocyte glucose uptake assay compared with the insulin control": "did not give a response greater than or equal to the insulin control"}, {"compound": "CCCCCn1c(O)nnc1Sc1ncc([N+](=O)[O-])s1", "note": "[Compound 100]", "response in the primary adipocyte glucose uptake assay compared with the insulin control": "did not give a response greater than or equal to the insulin control"}, {"compound": "O=[N+]([O-])c1cnc(Sc2n[nH]c(-c3ccccc3)n2)s1", "note": "[Compound 1, 3-[(5-nitrothiazol-2-yl)mercapto]-5-phenyl-1,2,4-triazole]", "response in the primary adipocyte glucose uptake assay compared with the insulin control": "did not give a response greater than or equal to the insulin control"}, {"compound": "CC(C)(C)c1nc(Sc2ncc([N+](=O)[O-])s2)n[nH]1", "note": "[Compound 2, 2-[(5-nitro-thiazol-2-yl)mercapto]-5-t-butyl-1,2,4-triazole]", "response in the primary adipocyte glucose uptake assay compared with the insulin control": "did not give a response greater than or equal to the insulin control"}, {"compound": "Nc1nnc(Sc2ncc([N+](=O)[O-])s2)s1", "note": "[Compound 14]", "response in the primary adipocyte glucose uptake assay compared with the insulin control": "did not give a response greater than or equal to the insulin control"}, {"compound": "2-[(5-nitrothiazol-2-yl)mercapto]-3-cyano-5-acetoxy-6-dimethoxymethyl-pyridine [Compound 97]", "response in the primary adipocyte glucose uptake assay compared with the insulin control": "did not give a response greater than or equal to the insulin control"}]}, {"system": "insulin receptor (IR)", "test": "Phosphotyrosine enzyme linked immunosorbent assay: pTyr on insulin receptor in NIH3T3 cells over-expressing human IR (H25 cells)", "details": "Table I; […]", "units": {"ACTIVITY (compared to control)": "%"}, "values": [{"compound": "O=[N+]([O-])c1cnc(Sc2n[nH]c(-c3cccs3)n2)s1", "note": "[Compound 3, 3-[(5-nitrothiazol-2-yl)mercapto]-5-(thien-2-yl)-1,2,4-triazole]", "ACTIVITY (compared to control)": 50}, {"compound": "O=[N+]([O-])c1cnc(Sc2nc(-c3ccc(Cl)cc3)n[nH]2)s1", "note": "[Compound 4, 3-(4-chlorophenyl)-5-[(5-nitrothiazol-2-yl)mercapto]-1,2,4-triazole]", "ACTIVITY (compared to control)": 30}, {"compound": "O=[N+]([O-])c1cnc(Sc2n[nH]c(-c3ccccc3)n2)s1", "note": "[Compound 1, 3-[(5-nitrothiazol-2-yl)mercapto]-5-phenyl-1,2,4-triazole]", "ACTIVITY (compared to control)": 30}]}, {"system": "insulin receptor (IR)", "test": "Phosphotyrosine enzyme linked immunosorbent assay: pTyr on insulin receptor in NIH3T3 cells over-expressing human IR (H25 cells)", "details": "Table I; concentration of the compound which produces the percentage increase in phosphotyrosine over the vanadate control; 90 min incubation, no insulin", "values": [{"compound": "O=[N+]([O-])c1cnc(Sc2n[nH]c(-c3cccs3)n2)s1", "note": "[Compound 3, 3-[(5-nitrothiazol-2-yl)mercapto]-5-(thien-2-yl)-1,2,4-triazole]", "CONC.": "77 µM"}, {"compound": "O=[N+]([O-])c1cnc(Sc2nnc(O)n2Cc2ccccc2)s1", "note": "[Compound 7]", "CONC.": "200 µM and 100 µM"}, {"compound": "O=[N+]([O-])c1cnc(Sc2nc(-c3ccc(Cl)cc3)n[nH]2)s1", "note": "[Compound 4, 3-(4-chlorophenyl)-5-[(5-nitrothiazol-2-yl)mercapto]-1,2,4-triazole]", "CONC.": "100 µM"}, {"compound": "O=[N+]([O-])c1cnc(Sc2n[nH]c(-c3ccccc3)n2)s1", "note": "[Compound 1, 3-[(5-nitrothiazol-2-yl)mercapto]-5-phenyl-1,2,4-triazole]", "CONC.": "53 µM"}, {"compound": "CC(C)(C)c1nc(Sc2ncc([N+](=O)[O-])s2)n[nH]1", "note": "[Compound 2, 2-[(5-nitro-thiazol-2-yl)mercapto]-5-t-butyl-1,2,4-triazole]", "CONC.": "4.1 µM"}]}, {"system": "insulin receptor (IR)", "test": "Phosphotyrosine enzyme linked immunosorbent assay: pTyr on insulin receptor in NIH3T3 cells over-expressing human IR (H25 cells)", "details": "Table II; at 100 μm", "values": [{"compound": "CCCCCn1c(O)nnc1Sc1ncc([N+](=O)[O-])s1", "note": "[Compound 100]", "one point determination, effect on PTYR": "no effect"}]}, {"system": "insulin receptor (IR)", "test": "Phosphotyrosine enzyme linked immunosorbent assay: pTyr on insulin receptor in NIH3T3 cells over-expressing human IR (H25 cells)", "details": "kinetic experiments, range of concentrations, period of 90 minutes", "values": [{"compound": "2-[(5-nitrothiazol-2-yl)mercapto]-3-cyano-5-acetoxy-6-dimethoxymethyl-pyridine [Compound 97]", "level of pTyr on insulin receptor over time (FIG. 1)": "progressively raised the level of pTyr on insulin receptor"}]}, {"system": "insulin receptor (IR)", "test": "Phosphotyrosine enzyme linked immunosorbent assay: pTyr on insulin receptor in NIH3T3 cells over-expressing human IR (H25 cells)", "details": "read-out: ACTIVITY EC50", "units": {"EC50": "µM"}, "values": [{"compound": "2-[(5-nitrothiazol-2-yl)mercapto]-3-cyano-5-acetoxy-6-dimethoxymethyl-pyridine [Compound 97]", "EC50": 34}]}, {"system": "insulin receptor (IR)", "test": "Phosphotyrosine enzyme linked immunosorbent assay: pTyr on insulin receptor in NIH3T3 cells over-expressing human IR (H25 cells)", "details": "read-out: ACTIVITY EC50; Table II; LOT 1", "units": {"EC50": "µM"}, "values": [{"compound": "Cn1ccnc1Sc1ncc([N+](=O)[O-])s1", "note": "[Compound 13, 1-Methyl-2-[(5-nitrothiazol-2-yl)mercapto]imidazole]", "EC50": 13}]}, {"system": "insulin receptor (IR)", "test": "Phosphotyrosine enzyme linked immunosorbent assay: pTyr on insulin receptor in NIH3T3 cells over-expressing human IR (H25 cells)", "details": "read-out: ACTIVITY EC50; Table II; LOT 2", "units": {"EC50": "µM"}, "values": [{"compound": "Cn1ccnc1Sc1ncc([N+](=O)[O-])s1", "note": "[Compound 13, 1-Methyl-2-[(5-nitrothiazol-2-yl)mercapto]imidazole]", "EC50": 14}]}, {"system": "insulin receptor (IR)", "test": "Phosphotyrosine enzyme linked immunosorbent assay: pTyr on insulin receptor in NIH3T3 cells over-expressing human IR (H25 cells)", "details": "read-out: ACTIVITY EC50; Table II; […]; no lot stated", "units": {"EC50": "µM"}, "values": [{"compound": "O=[N+]([O-])c1cnc(Sc2n[nH]c(-c3cccs3)n2)s1", "note": "[Compound 3, 3-[(5-nitrothiazol-2-yl)mercapto]-5-(thien-2-yl)-1,2,4-triazole]", "EC50": "22 to 32"}, {"compound": "O=[N+]([O-])c1cnc(Sc2ncc(C(F)(F)F)cn2)s1", "note": "[Compound 83, 2-[(5-Nitrothiazol-2-yl)mercapto]-5-(trifluoromethyl)pyrimidine]", "EC50": 8.8}, {"compound": "O=[N+]([O-])c1cnc(Sc2nnc(O)n2Cc2ccccc2)s1", "note": "[Compound 7]", "EC50": 13}, {"compound": "O=[N+]([O-])c1cnc(Sc2nc(-c3ccc(Cl)cc3)n[nH]2)s1", "note": "[Compound 4, 3-(4-chlorophenyl)-5-[(5-nitrothiazol-2-yl)mercapto]-1,2,4-triazole]", "EC50": "15 to 49"}, {"compound": "O=[N+]([O-])c1cnc(Sc2n[nH]c(-c3ccccc3)n2)s1", "note": "[Compound 1, 3-[(5-nitrothiazol-2-yl)mercapto]-5-phenyl-1,2,4-triazole]", "EC50": 17}, {"compound": "CC(C)(C)c1nc(Sc2ncc([N+](=O)[O-])s2)n[nH]1", "note": "[Compound 2, 2-[(5-nitro-thiazol-2-yl)mercapto]-5-t-butyl-1,2,4-triazole]", "EC50": "16 to 20"}, {"compound": "Nc1nnc(Sc2ncc([N+](=O)[O-])s2)s1", "note": "[Compound 14]", "EC50": 8}]}]}
